The record followed here is paper PMC3602154 (PLoS ONE, 2013).

Structures are written as SMILES. Read-outs that look alike come from different tables or passages of the source. Where only a bound is given, the exact number is not on record here.

The target of one assay is A4B4 (Rattus norvegicus, UniProt P09483+P12392). Put plainly: PDSP radioligand binding, nicotinic receptor α4 ß4. The source says: (§1) [17] and http://pdsp.med.unc.edu/UNC-CH%20Protocol%20Book.pdf.
The target of the next assay is CB1 (Homo sapiens, UniProt P21554). Put plainly: PDSP radioligand binding, cannabinoid CB-1.
Source text: as §1

A further assay has as its target BZP Rat Brain Site. Put plainly: PDSP radioligand binding, benzodiazepine site on GABA-A. The conditions noted are these: Table S1; unit inferred.
Source text: as §1

For the next assay, the target named is D2 (Homo sapiens, UniProt P14416). The assay is described as follows: PDSP radioligand binding, dopamine receptor D2.
Source text: as §1

For a further assay, the target named is 5-ht5a (Homo sapiens, UniProt P47898). The assay is described as follows: PDSP radioligand binding, serotonin receptor 5-HT5.
Source text: as §1

Another assay concerns the target DOR (Homo sapiens, UniProt P41143). The assay is described as follows: PDSP radioligand binding, opioid receptor DOR.
Source text: as §1

Another assay has as its target A2B4 (Rattus norvegicus, UniProt P12389+P12392). The assay is described as follows: PDSP radioligand binding, nicotinic receptor α2 ß4.
Source text: as §1

For assay [1], the target named is NET (norepinephrine transporter) (Homo sapiens, UniProt P23975). Put plainly: PDSP radioligand binding, norepinephrine transporter. The conditions noted are these: for inhibition at 10 µM: quadruplicate, read-out: NET Primary Screen inhibition of binding.
Source text: as §1

For the next assay, the target named is A4B2 (Rattus norvegicus, UniProt P09483+P12390). The assay is described as follows: PDSP radioligand binding, nicotinic receptor α4 ß2.
Source text: as §1

In the next assay the target is D3 (Homo sapiens, UniProt P35462). Put plainly: PDSP radioligand binding, dopamine receptor D3.
Source text: as §1

A further assay concerns the target PBR (Homo sapiens, UniProt P30536). The assay is described as follows: PDSP radioligand binding, peripheral benzodiazepine receptor.
Source text: as §1

For the next assay, the target named is MOR (Homo sapiens, UniProt P35372). Put plainly: PDSP radioligand binding, opioid receptor MOR.
Source text: as §1

Another assay deals with T1, Alpha1A (Homo sapiens, UniProt P35348).
T1 sequence (P35348 1-466): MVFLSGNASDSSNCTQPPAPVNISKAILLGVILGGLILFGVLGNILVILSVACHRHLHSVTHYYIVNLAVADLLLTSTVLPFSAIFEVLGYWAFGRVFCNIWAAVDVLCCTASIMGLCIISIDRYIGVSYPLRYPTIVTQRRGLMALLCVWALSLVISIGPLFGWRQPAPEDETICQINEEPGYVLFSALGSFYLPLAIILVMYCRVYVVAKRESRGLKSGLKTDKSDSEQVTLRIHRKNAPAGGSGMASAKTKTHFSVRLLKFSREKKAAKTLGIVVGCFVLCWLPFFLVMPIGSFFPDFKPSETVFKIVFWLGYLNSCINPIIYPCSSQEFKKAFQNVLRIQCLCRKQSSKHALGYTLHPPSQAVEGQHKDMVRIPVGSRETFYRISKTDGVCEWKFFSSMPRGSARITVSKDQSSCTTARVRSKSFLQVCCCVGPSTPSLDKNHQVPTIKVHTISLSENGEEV
Put plainly: PDSP radioligand binding, adrenoceptor α1A.
Source text: as §1

The target of a further assay is GABAB (Homo sapiens, UniProt Q9UBS5). Put plainly: PDSP radioligand binding, GABA-B.
Source text: as §1

In a further assay the target is T2, 5-HT1A (Homo sapiens, UniProt P08908).
T2 sequence (P08908 1-422): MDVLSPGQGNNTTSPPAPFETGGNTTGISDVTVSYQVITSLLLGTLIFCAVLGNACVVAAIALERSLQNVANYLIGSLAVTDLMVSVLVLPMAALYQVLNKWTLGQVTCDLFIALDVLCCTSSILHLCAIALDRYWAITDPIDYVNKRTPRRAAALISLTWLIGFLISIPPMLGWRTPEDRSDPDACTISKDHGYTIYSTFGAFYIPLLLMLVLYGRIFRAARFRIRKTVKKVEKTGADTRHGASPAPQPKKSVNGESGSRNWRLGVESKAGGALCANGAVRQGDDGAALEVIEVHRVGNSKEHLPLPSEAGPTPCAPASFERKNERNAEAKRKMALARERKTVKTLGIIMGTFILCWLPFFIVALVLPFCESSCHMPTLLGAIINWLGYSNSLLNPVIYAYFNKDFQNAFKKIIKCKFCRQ
The assay is described as follows: PDSP radioligand binding, serotonin receptor 5-HT1A.
Source text: as §1

Another assay addresses GABAA. Put plainly: PDSP radioligand binding, GABA-A. Conditions: Table S1; unit inferred.
Source text: as §1

Another assay deals with Sigma1 (Homo sapiens, UniProt Q99720). Put plainly: PDSP radioligand binding, Sigma1.
Source text: as §1

The next assay concerns the target T3, M4 (Homo sapiens, UniProt P08173).
T3 sequence (P08173 1-479): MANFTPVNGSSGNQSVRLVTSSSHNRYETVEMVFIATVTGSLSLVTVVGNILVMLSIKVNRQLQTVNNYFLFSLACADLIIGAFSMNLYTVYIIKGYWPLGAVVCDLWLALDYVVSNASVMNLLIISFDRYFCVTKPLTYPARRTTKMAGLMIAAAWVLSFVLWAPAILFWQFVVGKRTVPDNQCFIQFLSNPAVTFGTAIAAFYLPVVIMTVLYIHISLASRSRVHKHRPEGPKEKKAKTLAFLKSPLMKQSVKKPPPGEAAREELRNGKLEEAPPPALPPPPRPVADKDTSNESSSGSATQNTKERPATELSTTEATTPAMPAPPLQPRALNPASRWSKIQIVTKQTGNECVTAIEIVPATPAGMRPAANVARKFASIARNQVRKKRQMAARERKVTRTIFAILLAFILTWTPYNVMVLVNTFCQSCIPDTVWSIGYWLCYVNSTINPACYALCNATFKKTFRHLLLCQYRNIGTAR
The assay is described as follows: PDSP radioligand binding, muscarinic receptor M4.
Source text: as §1

A further assay has as its target H4 (Homo sapiens, UniProt Q9H3N8). Put plainly: PDSP radioligand binding, histamine receptor H4.
Source text: as §1

In the next assay the target is T4, D4 (Homo sapiens, UniProt P21917).
T4 sequence (P21917 1-419): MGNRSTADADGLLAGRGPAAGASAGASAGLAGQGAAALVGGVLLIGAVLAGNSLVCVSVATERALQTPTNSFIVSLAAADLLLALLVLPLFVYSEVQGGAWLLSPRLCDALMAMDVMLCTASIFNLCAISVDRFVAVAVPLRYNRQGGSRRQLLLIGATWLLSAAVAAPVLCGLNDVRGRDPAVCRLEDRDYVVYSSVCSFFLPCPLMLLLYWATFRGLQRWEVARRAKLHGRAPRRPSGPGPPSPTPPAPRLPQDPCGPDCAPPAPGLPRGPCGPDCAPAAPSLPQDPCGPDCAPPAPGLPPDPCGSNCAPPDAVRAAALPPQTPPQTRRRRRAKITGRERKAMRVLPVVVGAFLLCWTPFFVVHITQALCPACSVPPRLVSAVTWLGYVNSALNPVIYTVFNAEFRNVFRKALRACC
The assay is described as follows: PDSP radioligand binding, dopamine receptor D4.
Source text: as §1

Assay [2] addresses NMDA Receptor (MK-801 binding site). Put plainly: PDSP radioligand binding, NMDA receptor.
Source text: as §1

The mark [3] stands for this setting: Table 2, read-out: NMDA (Ki) (converted).

Chain of D2 (P14416 whole entry): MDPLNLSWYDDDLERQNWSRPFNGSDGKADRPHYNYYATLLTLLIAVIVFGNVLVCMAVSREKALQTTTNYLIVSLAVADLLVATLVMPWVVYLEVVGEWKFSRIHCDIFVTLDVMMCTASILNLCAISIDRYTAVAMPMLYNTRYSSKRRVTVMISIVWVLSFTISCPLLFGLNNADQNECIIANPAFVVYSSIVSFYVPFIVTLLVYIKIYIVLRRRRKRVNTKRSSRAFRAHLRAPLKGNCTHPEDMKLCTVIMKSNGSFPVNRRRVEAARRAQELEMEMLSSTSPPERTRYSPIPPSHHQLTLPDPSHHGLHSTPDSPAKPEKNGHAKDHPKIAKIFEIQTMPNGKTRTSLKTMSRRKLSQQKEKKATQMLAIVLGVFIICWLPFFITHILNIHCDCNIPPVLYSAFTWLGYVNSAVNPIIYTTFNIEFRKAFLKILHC
Chain of D3 (P35462 whole entry): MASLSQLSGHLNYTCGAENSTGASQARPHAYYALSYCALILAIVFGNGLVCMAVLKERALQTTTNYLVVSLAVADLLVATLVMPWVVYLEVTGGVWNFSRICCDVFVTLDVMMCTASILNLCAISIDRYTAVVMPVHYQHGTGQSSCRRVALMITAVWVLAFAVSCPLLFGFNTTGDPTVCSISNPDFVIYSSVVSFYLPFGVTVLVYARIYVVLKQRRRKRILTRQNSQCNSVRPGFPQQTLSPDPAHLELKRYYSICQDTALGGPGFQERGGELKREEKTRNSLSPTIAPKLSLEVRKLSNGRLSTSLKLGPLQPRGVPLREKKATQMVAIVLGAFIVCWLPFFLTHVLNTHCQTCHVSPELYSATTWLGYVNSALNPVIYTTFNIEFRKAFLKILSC
Chain of H4 (Q9H3N8 whole entry): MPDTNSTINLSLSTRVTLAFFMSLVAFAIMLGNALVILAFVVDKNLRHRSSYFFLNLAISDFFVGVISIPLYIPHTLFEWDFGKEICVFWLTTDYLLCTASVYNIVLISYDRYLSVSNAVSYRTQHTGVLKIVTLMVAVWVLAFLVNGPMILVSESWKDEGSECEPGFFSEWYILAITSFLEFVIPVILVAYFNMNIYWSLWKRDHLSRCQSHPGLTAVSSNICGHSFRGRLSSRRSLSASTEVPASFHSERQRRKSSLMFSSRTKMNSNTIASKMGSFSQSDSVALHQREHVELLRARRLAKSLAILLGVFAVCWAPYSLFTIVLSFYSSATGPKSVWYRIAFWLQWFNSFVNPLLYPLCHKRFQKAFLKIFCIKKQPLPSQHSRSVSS
Chain of 5-ht5a (P47898 whole entry, species assumed): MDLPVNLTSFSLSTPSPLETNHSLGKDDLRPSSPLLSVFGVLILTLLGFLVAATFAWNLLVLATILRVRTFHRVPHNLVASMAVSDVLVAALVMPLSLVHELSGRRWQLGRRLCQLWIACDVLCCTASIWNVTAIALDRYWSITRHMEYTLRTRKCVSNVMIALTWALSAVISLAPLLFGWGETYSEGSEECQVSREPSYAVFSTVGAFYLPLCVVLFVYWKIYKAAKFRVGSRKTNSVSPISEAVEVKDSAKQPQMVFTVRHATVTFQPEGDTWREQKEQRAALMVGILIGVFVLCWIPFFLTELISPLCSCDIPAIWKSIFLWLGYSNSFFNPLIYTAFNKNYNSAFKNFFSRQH
Chain of NET (norepinephrine transporter) (P23975 whole entry, species assumed): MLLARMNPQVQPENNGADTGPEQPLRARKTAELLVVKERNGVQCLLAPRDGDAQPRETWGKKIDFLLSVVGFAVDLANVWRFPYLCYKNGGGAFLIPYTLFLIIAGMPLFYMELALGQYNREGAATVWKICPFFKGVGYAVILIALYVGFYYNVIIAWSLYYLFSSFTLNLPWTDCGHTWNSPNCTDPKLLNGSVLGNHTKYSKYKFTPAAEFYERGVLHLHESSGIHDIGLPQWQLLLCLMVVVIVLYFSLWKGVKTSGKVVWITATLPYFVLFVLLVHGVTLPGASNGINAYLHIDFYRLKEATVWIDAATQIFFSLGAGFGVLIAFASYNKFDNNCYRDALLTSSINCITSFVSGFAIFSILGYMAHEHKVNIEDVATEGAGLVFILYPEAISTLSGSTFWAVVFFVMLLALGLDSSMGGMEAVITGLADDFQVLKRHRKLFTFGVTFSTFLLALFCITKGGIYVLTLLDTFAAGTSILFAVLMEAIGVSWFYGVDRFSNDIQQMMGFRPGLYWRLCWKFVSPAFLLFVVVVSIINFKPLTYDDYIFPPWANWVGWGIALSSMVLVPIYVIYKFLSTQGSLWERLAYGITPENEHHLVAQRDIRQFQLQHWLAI
Chain of PBR (P30536 whole entry, species assumed): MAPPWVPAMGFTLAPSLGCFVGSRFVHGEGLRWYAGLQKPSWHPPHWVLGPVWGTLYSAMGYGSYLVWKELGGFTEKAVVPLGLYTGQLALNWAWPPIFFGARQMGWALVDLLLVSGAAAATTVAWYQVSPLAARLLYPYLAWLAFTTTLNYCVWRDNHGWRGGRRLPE
Chain of DOR (P41143 whole entry): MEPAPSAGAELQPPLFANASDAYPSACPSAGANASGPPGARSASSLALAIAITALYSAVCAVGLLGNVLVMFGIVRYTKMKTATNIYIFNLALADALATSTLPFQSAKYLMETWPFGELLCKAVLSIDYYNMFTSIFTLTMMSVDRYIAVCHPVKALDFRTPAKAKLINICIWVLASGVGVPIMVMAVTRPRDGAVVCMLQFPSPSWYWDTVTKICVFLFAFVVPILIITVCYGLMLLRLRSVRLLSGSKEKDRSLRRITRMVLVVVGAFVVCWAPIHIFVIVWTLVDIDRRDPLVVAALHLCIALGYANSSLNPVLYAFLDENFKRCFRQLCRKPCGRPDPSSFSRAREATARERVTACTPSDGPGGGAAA
Chain of A2B4 (P12389 28-511): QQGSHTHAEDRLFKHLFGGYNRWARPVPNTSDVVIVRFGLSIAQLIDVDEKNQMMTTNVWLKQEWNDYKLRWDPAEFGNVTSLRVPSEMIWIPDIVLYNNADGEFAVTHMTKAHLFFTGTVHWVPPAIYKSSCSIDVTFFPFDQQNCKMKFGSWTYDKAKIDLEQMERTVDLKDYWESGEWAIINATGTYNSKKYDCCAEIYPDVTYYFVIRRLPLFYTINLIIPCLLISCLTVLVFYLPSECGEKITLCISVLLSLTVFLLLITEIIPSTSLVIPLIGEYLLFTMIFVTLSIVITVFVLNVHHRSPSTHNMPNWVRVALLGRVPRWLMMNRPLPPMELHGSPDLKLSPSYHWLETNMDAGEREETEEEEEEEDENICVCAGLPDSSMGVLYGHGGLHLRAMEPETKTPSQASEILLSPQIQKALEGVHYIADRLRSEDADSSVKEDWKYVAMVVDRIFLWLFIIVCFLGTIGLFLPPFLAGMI
Chain of A2B4 (P12392 21-495): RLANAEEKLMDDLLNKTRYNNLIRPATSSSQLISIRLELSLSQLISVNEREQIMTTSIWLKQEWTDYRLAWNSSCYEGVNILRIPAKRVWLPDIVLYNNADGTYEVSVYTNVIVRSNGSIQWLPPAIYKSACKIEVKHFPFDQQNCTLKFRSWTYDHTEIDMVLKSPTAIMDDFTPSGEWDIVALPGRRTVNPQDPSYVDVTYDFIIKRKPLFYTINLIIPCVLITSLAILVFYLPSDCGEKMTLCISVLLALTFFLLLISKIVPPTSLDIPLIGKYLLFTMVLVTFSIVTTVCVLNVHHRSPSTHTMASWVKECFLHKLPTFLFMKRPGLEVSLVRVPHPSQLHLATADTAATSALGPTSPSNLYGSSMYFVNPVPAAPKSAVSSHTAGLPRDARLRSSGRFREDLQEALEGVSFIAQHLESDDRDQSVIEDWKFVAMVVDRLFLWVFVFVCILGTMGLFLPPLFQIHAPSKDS
Chain of CB1 (P21554 whole entry, species assumed): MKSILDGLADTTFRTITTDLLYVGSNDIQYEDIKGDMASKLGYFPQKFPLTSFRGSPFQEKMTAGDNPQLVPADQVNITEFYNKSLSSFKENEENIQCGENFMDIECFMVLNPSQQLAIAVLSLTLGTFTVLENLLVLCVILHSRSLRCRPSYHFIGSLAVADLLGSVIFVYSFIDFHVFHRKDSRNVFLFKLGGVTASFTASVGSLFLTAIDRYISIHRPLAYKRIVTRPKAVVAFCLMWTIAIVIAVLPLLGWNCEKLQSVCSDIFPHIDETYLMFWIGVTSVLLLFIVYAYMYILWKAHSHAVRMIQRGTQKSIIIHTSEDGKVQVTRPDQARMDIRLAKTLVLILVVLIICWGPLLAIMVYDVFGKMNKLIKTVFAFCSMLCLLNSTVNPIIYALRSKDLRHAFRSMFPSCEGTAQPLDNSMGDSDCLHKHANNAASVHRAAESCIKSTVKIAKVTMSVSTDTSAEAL
Chain of A4B4 (P09483 31-630): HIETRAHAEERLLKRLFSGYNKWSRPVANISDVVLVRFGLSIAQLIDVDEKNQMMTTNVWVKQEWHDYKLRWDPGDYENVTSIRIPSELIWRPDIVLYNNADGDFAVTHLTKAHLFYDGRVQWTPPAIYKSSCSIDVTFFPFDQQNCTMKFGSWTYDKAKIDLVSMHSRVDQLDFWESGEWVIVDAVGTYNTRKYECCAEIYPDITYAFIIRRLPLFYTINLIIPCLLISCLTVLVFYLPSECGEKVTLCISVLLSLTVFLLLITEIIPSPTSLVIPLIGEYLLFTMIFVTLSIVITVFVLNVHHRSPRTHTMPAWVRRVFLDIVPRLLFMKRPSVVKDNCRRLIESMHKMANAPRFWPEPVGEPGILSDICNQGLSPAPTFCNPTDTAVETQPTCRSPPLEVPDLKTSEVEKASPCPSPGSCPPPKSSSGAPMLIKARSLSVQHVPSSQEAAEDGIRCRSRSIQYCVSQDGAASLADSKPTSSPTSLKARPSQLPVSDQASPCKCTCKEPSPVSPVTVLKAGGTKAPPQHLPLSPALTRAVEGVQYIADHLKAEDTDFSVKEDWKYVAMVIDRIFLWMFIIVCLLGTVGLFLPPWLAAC
Chain of A4B4 (P12392 21-495): as the sequence (P12392 21-495) above

For orientation: Ki means a measure of affinity in units of concentration, obtained from inhibition or displacement. As usually defined, the inhibition is the drop in the measured response relative to a control, in per cent. On to `COc1cccc(C2(N3CCCCC3)CCCCC2)c1` [3-MeO-PCP, 1-[1-(3-methoxyphenyl)cyclohexyl]piperidine], for which the inhibitory constant (Ki) on A4B4, on CB1, at BZP Rat Brain Site, at D2, on 5-ht5a and on DOR was > 10 µM in each case. In addition, the Ki (on A2B4; in assay [1]; on A4B2; on D3; on PBR; on MOR) was > 10 µM each time. Moreover, the Ki on Alpha1A is > 10 µM; at GABAB it was > 10 µM; on 5-HT1A it was > 10 µM; at GABAA, > 10 µM; at Sigma1, 0.042 µM; on M4 it was > 10 µM. In addition, the values for the Ki (on H4; at D4; in assay [2] (setting [3])) were > 10 µM, > 10 µM and 0.02 µM, respectively. The inhibition at 10 µM in [1] was < 50%. Further, in assay [2] (Table 2), the “NMDA pKi +/− SD” value was 7.69±0.08.
With `CCNC1(c2cccc(OC)c2)CCCCC1=O` (racemic) [Methoxetamine, (RS)-2-(ethylamino)-2-(3-methoxyphenyl)cyclohexanone], the Ki on A4B4, on CB1, on BZP Rat Brain Site, on D2, at 5-ht5a and at DOR was > 10 µM each time. The Ki (on A2B4; in assay [1]; at A4B2; at D3; at PBR; on MOR) was > 10 µM in each case. The inhibition constant (Ki) at Alpha1A, on GABAB, on 5-HT1A, at GABAA, on Sigma1 and at M4 was > 10 µM in each case. The inhibition constant (Ki) at H4 was > 10 µM; at D4 it was > 10 µM; in [2] (Figure 3, N = 3 separate determinations, read-out: Ki in NMDA receptor assay), 0.337 µM; in assay [2] (Table S1, unit inferred, read-out: Ki NMDA), 0.338 µM. Further, the inhibition at 10 µM was < 50% in [1] and < 50% on Sigma1 (10 µM, quadruplicate, read-out: Sigma1 Primary Screen inhibition of binding).
For `COc1ccc(C2(N3CCCCC3)CCCCC2)cc1` [4-MeO-PCP, 1-[1-(4-methoxyphenyl)cyclohexyl]piperidine], the Ki on A4B4, at CB1, on BZP Rat Brain Site, at D2, at 5-ht5a and on DOR was > 10 µM each time. The Ki was > 10 µM at A2B4; 0.713 µM in [1]; > 10 µM at A4B2; > 10 µM at D3; > 10 µM on PBR; > 10 µM at MOR. Besides, the Ki on Alpha1A is > 10 µM; on GABAB, > 10 µM; at 5-HT1A, > 10 µM; on GABAA, > 10 µM; on Sigma1, 0.296 µM; on M4, > 10 µM. In addition, the Ki on H4 was > 10 µM; at D4, > 10 µM; in [2] (setting [3]), 0.404 µM. The “NMDA pKi +/− SD” value in [2] (Table 2) was found to be 6.39±0.06.
